In patent publication US9565840B2, “Fibrotic non-human animal, and use thereof” (KYOTO UNIVERSITY, priority 2012, dated 2017):
Residues, ends and D or L forms follow the SMILES beside them. *: point of attachment. Cbz = O=C(OCc1ccccc1)*

Tested on: IKKβ
Assay: IKKβ level in fibroblasts from the skin of scleroderma patients, MG132 pre-treatment before IL-1β stimulation
Assay type: cell-based, human
Details: fibroblast from the skin of scleroderma patients; 2 μM MG132 for 2 hr before IL-1β (2.5 ng/mL, 60 min) stimulation; FIG. 11-3
Protocol: The skin of scleroderma patients (n=5) and healthy individual (n=5) was collected by biopsy, and fibroblast was prepared. The fibroblast was cultured in DMEM medium added with L-glutamine, penicillin/streptomycin and 10% FCS at 37° C., 5% CO2 concentration. After culture, nuclear protein was extracted from the fibroblast by using NE-PER nuclear protein cytoplasmic protein separation extraction kit (Thermo Scientific), and the p65 protein levels of the whole-cell lysate and nuclear extract were compared. RNA was isolated from the fibroblast by using RNA aqueous (trade mark) kit (Applied Biosytems (trade mark)), and the p65 mRNA level was compared using TaqMan (registered trade mark) Gene Expression Assays kit (Applied Biosytems (trade mark)). The NFκB activity of the fibroblast was measured by NFκB p65 Transcription Assay Kit (Thermo Scientific) and compared. […] Further, fibroblasts from the skin of scleroderma patients were stimulated for 60 min with IL-1β (2.5 ng/mL), and IKKβ and nuclear p65 protein amounts were compared. […] In addition, fibroblast from the skin of scleroderma patients was treated with 2 μM MG132 for 2 hr before the aforementioned IL-β stimulation, and the IKKβ level was measured.

## CC(C)C[C@@H](C=O)NC(=O)[C@H](CC(C)C)NC(=O)[C@H](CC(C)C)NC(=O)OCc1ccccc1 [MG132] (Cbz-Leu-Leu-Leu-aldehyde)
  IKKβ level: recovered the IKKβ level
